We go through 1 molecule from paper PMC5839409, “Targeting intracellular B2 receptors using novel cell-penetrating antagonists to arrest growth and induce apoptosis in human triple-negative breast cancer” (Oncotarget, 2018).

The test system of assay [1] is MDA-MB-231 cells. Briefly: cDNA SuperArray Human Signal Transduction Pathway Finder analysis. Particulars: 10 μM / 3h, relative to untreated controls. It counts as cell-based. The text has this:
cDNA SuperArray analysis manufacturer ’s instructions (SuperArray Bioscience). For cDNA microarray analysis, equal amounts of cRNA (3
The GEArray Q-series array of Human Signal µg) were biotinylated, then the probes were hybridized Transduction Pathway Finder (catalog OHS-014; onto the membranes containing specific genes for several SuperArray Bioscience) was used to quantify the transduction pathways. After extensive washing, specific expression of 113 genes representative of 18 signal hybridization onto the membranes was detected by transduction pathways. […] A […]
cells were incubated or not with FR173657 (10 µM) in fold change cutoff of ≥1.5 as compared to control cells DMEM for 3 hours at 37°C. At the end of treatments, cells was set to identify regulated genes. were collected, lysed and total RNA was purified using an ArrayGrade Total RNA Isolation kit according to the Supplementary Table 1: Marked gene expression changes in FR173657-treated MDA-MB-231 cells relative to untreated controls
Description GenBank acc. Symbol Fold change
NLR family, apoptosis inhibitory protein NM_004536 NAIP 1,50
Cyclin-dependent kinase inhibitor 1B (p27, Kip1) NM_004064 CDKN1B 1,70
Cyclin-dependent kinase inhibitor 2B (p15, inhibits CDK4) NM_004936 CDKN2B 1,80 Cyclin-dependent kinase inhibitor 2C (p18, inhibits CDK4) NM_078626 CDKN2C 2,20 Caudal type homeobox transcription factor 1 NM_001804 CDX1 1,80
CCAAT/enhancer binding protein (C/EBP), beta NM_005194 CEBPB 1,70 […]
Platelet/endothelial cell adhesion molecule (CD31 antigen) NM_000442 PECAM1 3,90 Nitric oxide synthase 2A (inducible, hepatocytes) NM_000625 NOS2A –1,50 […]
Overall, the data generated from the transcriptional profiling study are, in general, in good agreement with the strong anticancer activity of FR173657 observed in MDA-MB-231 cells.

Assay [2] has as its target T1, B2R endogenously expressed in the human de-endothelized umbilical veins (Homo sapiens, UniProt P30411).
T1 construct: B2R endogenously expressed in the human de-endothelized umbilical veins (hUV); from tissue; host or cells: human umbilical vein, de-endothelized
T1 sequence (P30411 1-391): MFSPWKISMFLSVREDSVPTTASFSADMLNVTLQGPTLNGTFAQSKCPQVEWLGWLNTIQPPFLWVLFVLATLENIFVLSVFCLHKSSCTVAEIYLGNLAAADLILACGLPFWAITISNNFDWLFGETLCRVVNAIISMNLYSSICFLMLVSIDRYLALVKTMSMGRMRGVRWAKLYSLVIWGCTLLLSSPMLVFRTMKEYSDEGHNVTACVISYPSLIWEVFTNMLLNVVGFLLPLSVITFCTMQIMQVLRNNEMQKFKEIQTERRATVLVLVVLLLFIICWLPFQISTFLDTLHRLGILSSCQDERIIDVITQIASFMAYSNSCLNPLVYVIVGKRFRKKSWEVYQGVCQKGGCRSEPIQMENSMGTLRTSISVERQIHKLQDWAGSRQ
Conditions: antagonist, reduction of BK submaximal contraction; means ± s.e.m.; ref [34]; read-out: Bioassay hUV IC50; cited from earlier work.

Assay [3] deals with MDA-MB-231 cells. Kind of assay: Drug-drug synergy experiments (MTT, combination index). The assay is classed as cell-based, human. Particulars: IC25 ratios, 72h, CalcuSyn. As for the experimental part: Interactions (synergy, additive, antagonistic activities) between CP-B2RAs (FR173657 and NG68) and chemotherapeutic drugs (doxorubicin and paclitaxel) were evaluated using MTT standard assays. Twenty-four hours after seeding, cells were treated with CP-B2RAs, the other testing drug, or in combination. For combination testing, CP-B2RAs or the other testing drugs were added to plate in triplicate wells in ratios of IC25 (IC25A: IC25B), and cells are incubated in drug-treated medium for 72h and cell viability determined by MTT. Synergy was determined by calculating combination index (CI) value with the formula CI = (CA,X / ICx,A) + (CB,X / ICx,B), where CA,X and CB,X are concentrations of drug A and drug B used in combination to achieve x% drug effect. ICx,A and ICx,B are concentrations for single agents to achieve the same effect. A CI of less than, equal to, and more than 1 indicates synergy, additivity, and antagonism, respectively.

Assay [4] concerns MDA-MB-231 cells. Briefly: MTT proliferation assay. The assay is classed as cell-based, human. Conditions: B2R shRNA knockdown MDA-MB-231 cells vs scrambled shRNA. As for the experimental part: Cell proliferation assay on MDA-MB-231 cells was determined with colorimetric MTT as we described. Briefly, cells were seeded in a 96 wells plate at 2,000 cells/well in DMEM media supplemented with 10% FBS for 24h at 37°C. Cells were then incubated with and without the B2RAs at the indicated concentrations for the time shown. At the end of treatment period, MTT (0.25 mg/ml) was added to the cells and incubated for 1h30 at 37°C. Thereafter, the cell medium was removed, the formazan product solubilized in acidified isopropanol (100 µl of 1N HCl/anhydrous isopropanol 1:25) and the absorbance determined at 570 nm with an ELISA microplate reader (Spectra Max Plus, Molecular Devices, Sunnyvale, CA). For assessing the cytotoxicity of B2RAs and chemotherapeutic agents (carmustine, doxorubicin, carboplatin, temozolomide and paclitaxel), cells were grown to confluency in multi-well plates and exposed to starving media (DMEM without FBS) for 24h before beginning of the antagonist treatment. Cells were then incubated with MTT and treated exactly as described above. Cell viability was expressed as a percentage of optical density (OD) values obtained upon treatment relative to control.
For orientation: Tetrazolium assays rely on reduction of a dye to a coloured formazan, in cell work by metabolically active cells.

The subject of assay [5] is MDA-MB-231 cells. Briefly: Anchorage-dependent clonogenic assay. The assay is classed as cell-based, human. Particulars: 1 to 100 µM (FR173657 up to 25 µM), 10-14 days. How it is done:
MDA-MB-231 cells were plated at 200 cells/well in a six-well dish in 2 ml DMEM medium containing 10% FBS. […] After 10 to 14 days, colonies were fixed and stained with 0.5% methylene blue in 50% ethanol. Excess of staining solution was removed carefully with tap water and the plates were dried overnight. Colony counting and densitometric analyses (to measure total colony numbers and surface areas) were performed using the Image Pro Plus 5.1 software.

For `CC(=O)Nc1ccc(/C=C/C(=O)NCC(=O)N(C)c2ccc(Cl)c(COc3cccc4ccc(C)nc34)c2Cl)cn1` [FR 173657], in the assay with MDA-MB-231 cells [1], the “Fold change BMP4 gene expression” value is recorded as 1,50 fold; the “Fold change CCL20 gene expression” value was 1,50 fold; the “Fold change CDKN1B (p27, Kip1) gene expression” value is listed as 1,70 fold; the “Fold change CDKN2B gene expression” value is on record as 1,80 fold. For the same molecule, in the assay on MDA-MB-231 cells [1], the “Fold change CDKN2C gene expression” value is 2,20 fold, the “Fold change CDX1 gene expression” value is 1,80 fold, the “Fold change CEBPB gene expression” value is given as 1,70 fold and the “Fold change CTSD gene expression” value is recorded as 1,60 fold. For the same molecule, in the assay on MDA-MB-231 cells [1], the “Fold change CXCL9 gene expression” value is 1,70 fold, the “Fold change EGR1 gene expression” value is recorded as 1,60 fold, the “Fold change HOXB1 gene expression” value is 1,60 fold and the “Fold change MMP10 gene expression” value was 3,50 fold. Also, in the assay with MDA-MB-231 cells [1], the “Fold change NAIP gene expression” value is given as 1,50 fold, the “Fold change NOS2A gene expression” value is reported as “–1,50 fold”, the “Fold change PECAM1 gene expression” value was 3,90 fold and the “Fold change TFRC gene expression” value was “–1,50 fold”. Further, the IC50 in assay [2] was 6 ± 0.8 nM. The “combination index (CI)” value in the assay with MDA-MB-231 cells [3] (combination with doxorubicin) is “below 1”. The “combination index (CI)” value in the assay with MDA-MB-231 cells [3] (combination with paclitaxel) is “below 1”. In the assay with MDA-MB-231 cells [4], the “cytostatic activity after B2R downregulation” value is recorded as “significantly attenuated”. In addition, in the assay on MDA-MB-231 cells [5], the “colony formation (antagonist effect)” value is reported as “concentration-responsive clonal repression”.

The IC50 is the point on the concentration scale where inhibition reaches its midpoint.
